Columns and labels:
U87 cells = assay: LUMIBLAST cell viability, MTT assay; type: cell-based
Procedure: Efficiency of the luminol derivatives was investigated. The initial derivative tested was HD92 (also referred to herein as “AP47”). U87 cells were inoculated in 96 well plates. The cells were then divided into the following groups (at least 6 parallels per group): CTRL (media only), ALA CTRL (2 mM), HD92 CTRL (500 μM) and the LUMIBLAST group (2 mM 5-ALA and 500 μM HD92). Correspondingly, MCF7 cells were inoculated in 96 well plates and left to grow overnight. The cells were then divided into the following groups (at least 6 parallels per group): CTRL (media only), Hypocrellin A CTRL (HYPA 7 μM), HD92 CTRL (500 μM) and the LUMIBLAST group (7 μM HYPA and 500 μM HD92). These four groups were incubated in media with and without 10 μM FeSO4 in the case of experiments with HYPA. […] In brief, all cell groups were incubated with 0.5 mg/mL MTT for 3 hours. The MTT media were subsequently replaced with DMSO (100 μL) to solubilise the formazan. The wells were read for absorbance at 562 nm using a Tecan Spark OM plate reader. The cytotoxicity was determined as the percentage of control (media only) absorbance following subtraction of blank values from wells without cells.
MCF7 and U87 cells were inoculated in 96 well plates. The cells were then divided into the following groups (at least 6 parallels per group): CTRL (media only), HYPA CTRL (3 μM), DZ168 CTRL (5, 10, 20 and 30 μM), and the LUMIBLAST combinations (3 μM HYPA+DZ168 5-30 μM). These cell group incubations were also repeated in media containing 100 μM CuSO4. […]
MCF7 and U87 cells were inoculated in 96 well plates. The cells were then divided into the following groups (at least 6 parallels per group):CTRL (media only), HYPA CTRL (5 μM), DZ167 CTRL (25-200 μM), and the LUMIBLAST combinations (5 μM HYPA+DZ167 25-200 μM). These incubations were performed in media containing 50 μM CuSO4. […]
The subcellular localisation of cercosporin together with that of synthesised derivatives DZ203 (short alkyl linker) and DZ196 (oligoPEG linker) was investigated. U87 cells were inoculated in 96 well plates. The cells were then divided into the following groups (at least 6 parallels per group). CTRL (media only), Cercosporin CTRL (3 μM), DZ203 CTRL (200 μM), DZ196 CTRL (500 μM) and the LUMIBLAST combinations (3 μM cercosporin+DZ203 200 μM or 3 μM cercosporin DZ196 500 μM). […]

[1] = test system: MDA-MB-231 breast carcinoma cells; assay: LUMIBLAST cell viability, MTT assay; type: cell-based; conditions: 1.2 mM 5-ALA + DZ203 400 μM, 100 μM CuSO4, ~20 hours
Procedure: (§1) Efficiency of the luminol derivatives was investigated. The initial derivative tested was HD92 (also referred to herein as “AP47”). U87 cells were inoculated in 96 well plates. The cells were then divided into the following groups (at least 6 parallels per group): CTRL (media only), ALA CTRL (2 mM), HD92 CTRL (500 μM) and the LUMIBLAST group (2 mM 5-ALA and 500 μM HD92). Correspondingly, MCF7 cells were inoculated in 96 well plates and left to grow overnight. The cells were then divided into the following groups (at least 6 parallels per group): CTRL (media only), Hypocrellin A CTRL (HYPA 7 μM), HD92 CTRL (500 μM) and the LUMIBLAST group (7 μM HYPA and 500 μM HD92). These four groups were incubated in media with and without 10 μM FeSO4 in the case of experiments with HYPA. Following incubation of the cells with their respective drug strategies overnight (˜20 hours), the cell groups were tested for their viability using a standard MTT assay. In brief, all cell groups were incubated with 0.5 mg/mL MTT for 3 hours. The MTT media were subsequently replaced with DMSO (100 μL) to solubilise the formazan. The wells were read for absorbance at 562 nm using a Tecan Spark OM plate reader. The cytotoxicity was determined as the percentage of control (media only) absorbance following subtraction of blank values from wells without cells.
MDA-MB-231 cells were inoculated in 96 well plates. […]

cells = conditions: luminol together with transferrin-haematoporphyrin conjugates; cited from earlier work
MCF7 cells = assay: LUMIBLAST cell viability, MTT assay; type: cell-based
Procedure: as §1
MCF7 and U87 cells were inoculated in 96 well plates. The cells were then divided into the following groups (at least 6 parallels per group): CTRL (media only), HYPA CTRL (3 μM), DZ168 CTRL (5, 10, 20 and 30 μM), and the LUMIBLAST combinations (3 μM HYPA+DZ168 5-30 μM). These cell group incubations were also repeated in media containing 100 μM CuSO4. Following incubation of the cells with their respective drug strategies overnight (˜20 hours), the cell groups were tested for their viability using the MTT assay.

O=c1[nH][nH]c(=O)c2c(NCCC[P+](c3ccccc3)(c3ccccc3)c3ccccc3)cccc12.[I-] [DZ203, (3-((1,4-dioxo-1,2,3,4-tetrahydrophthalazin-5-yl)amino)propyl)triphenylphosphonium iodide]
LUMIBLAST effect (MTT viability) (U87 cells; U87, 3 μM cercosporin + DZ203 200 μM, 24 hours, presence of Cu (150 μM)): very profound effect | LUMIBLAST effect (MTT viability) [1]: substantial synergy

Nc1cccc2c(=O)[nH][nH]c(=O)c12 [luminol]
cytotoxicity (cells): 95%

NCC(=O)CCC(=O)O [Compound 5-ALA, 5-aminolevulinic acid, reference compound]
efficiency of photosensitizer in producing LUMIBLAST effects (U87 cells; 2 mM 5-ALA with 500 μM HD92 in U87, compared with HYPA in MCF7 with FeSO4): less efficient in producing LUMIBLAST effects than HYPA

O=c1[nH][nH]c(=O)c2c(NCCOCCOCC[P+](c3ccccc3)(c3ccccc3)c3ccccc3)cccc12.[I-] [DZ196, (2-(2-(2-((1,4-dioxo-1,2,3,4-tetrahydrophthalazin-5-yl)amino)ethoxy)ethoxy)ethyl)triphenylphosphonium iodide]
LUMIBLAST effect (MTT viability) (U87 cells; U87, 3 μM cercosporin + DZ196 500 μM, without Cu): smaller effect

O=c1[nH][nH]c(=O)c2c(NCCCCCCCCCC[P+](c3ccccc3)(c3ccccc3)c3ccccc3)cccc12.[I-] [DZ168, (10-((1,4-dioxo-1,2,3,4-tetrahydrophthalazin-5-yl)amino)decyl)triphenylphosphonium iodide]
toxicity (MTT viability) (MCF7 cells; 3 μM HYPA + DZ168 5-30 μM, 100 μM CuSO4, ~20 hours): enhanced toxicity | toxicity (MTT viability) (U87 cells; U87, 3 μM HYPA + DZ168 5-30 μM, 100 μM CuSO4, ~20 hours): not affected

O=C(CCCCC[P+](c1ccccc1)(c1ccccc1)c1ccccc1)Nc1cccc2c(=O)[nH][nH]c(=O)c12.[Br-] [AP47, (6-((1,4-dioxo-1,2,3,4-tetrahydrophthalazin-5-yl)amino)-6-oxohexyl)triphenylphosphonium bromide]
combinatory cytotoxic effect (MTT viability) (MCF7 cells; 7 μM HYPA and 500 μM HD92, 10 μM FeSO4, ~20 hours, relative to HD92 control): combinatory cytotoxic effect is profoundly significant | toxicity of the derivative alone (MTT viability) (MCF7 cells; HD92 CTRL 500 μM, ~20 hours): sub-toxic but very near the margins of chemical toxicity | combinatory cytotoxic effect (MTT viability) (U87 cells; U87, 2 mM 5-ALA and 500 μM HD92, ~20 hours, relative to HD92 control): combinatory cytotoxic effect is profoundly significant | toxicity of the derivative alone (MTT viability) (U87 cells; U87, HD92 CTRL 500 μM, ~20 hours): sub-toxic but very near the margins of chemical toxicity

O=c1[nH][nH]c(=O)c2c(NCCCCCC[P+](c3ccccc3)(c3ccccc3)c3ccccc3)cccc12.[I-] [DZ167, (6-((1,4-dioxo-1,2,3,4-tetrahydrophthalazin-5-yl)amino)hexyl)triphenylphosphonium iodide]
LUMIBLAST effect (MTT viability) (U87 cells; U87, 200 μM DZ167, 5 μM HYPA and 50 μM CuSO4, ~20 hours): synergistic effect
